Data set [1] in a line: In vitro skin permeation, Franz cell pseudo-finite dose study (acyclovir and CF). Type of data set: in vitro ADME, human. Conditions: for Amount in receptor after 60 min: Zovirax cream spiked with 3H-ACV; for EF: acyclovir, vs untreated skin. The procedure: Zovirax® spiked with ^3H-ACV was used as the formulation for the entire study. Briefly, 300 μl of ^3H ACV was placed into a 1.5 ml centrifuge tube and evaporated off, over a stream of air. Approximately 1 g of Zovirax® was weighed into the centrifuge tube and carefully mixed with a fine spatula to achieve a homogenous mix. To test for homogeneity, 3 random samples (top, middle and bottom) were taken and determined for radioactivity via scintillation counting.
(§1) Anodal treatment was conducted by placing the anode electrode in the donor compartment and the opposite electrode (cathode) in the receptor compartment of the Franz cell. Cathodal iontophoresis was conducted vice versa. The current treatment protocols employed were either • (a) iontophoresis: dose was administered simultaneously with current or • (b) post-iontophoresis: dose applied immediately after skin exposure to current. • A current intensity of 0.40 mA was employed for a 10 min period during both protocols. Novel Device (Rotatinig Brush) Procedure
Finite dose permeation experiments were performed using similar conditions as described above. The Franz cell studies were carried out without the use of a donor well, in order to allow for the placement of the iontophoretic device over the epidermal membrane. […] The effectiveness of the seal was confirmed if leakage of receptor fluid from the region of contact between skin and adhesive was not observed.
A formulation with a target dose of approximately 9±1 mg/cm^2 (ACV) and 20±2 mg/cm^2 (CF) was applied to the epidermal membrane surface using a previously calibrated positive displacement pipette. Selected control experiments were then performed as described above (anodal and cathodal iontophoresis was performed by simultaneous application of dose and current over a 10 min period for CF and ACV respectively). At certain time intervals 200 μl of the receiver fluid was carefully withdrawn from the receiver fluid (maximum duration of 4 h). Approximately 4 ml of scintillation cocktail was then added and the ACV sample analysed by scintillation counting, whereas the other penetrant was assayed via the HPLC method already described.

Data set [2] is described as follows: In vitro skin permeation of angiotensin II, Franz cell infinite dose, EIA analysis. Type of data set: in vitro ADME, human. The protocol: Analysis of the peptide was carried out using an enzyme immunoassay (EIA) as described in the EIA booklet. Briefly, a competitive enzyme immunoassay which detects Ang II in biological matrices was employed. The principle of the assay is based upon the competition for antibody binding sites between biotinylated and non-biotinylated peptides. The biotin group on the biotinylated peptide is then conjugated to SA-HRP which in turn reacts with another substrate ([…]) leading to the formation of colour. The absorbance recorded from each well is a direct measure of the extent of binding for each peptide with the antibody. Absorbance was measured using a spectrophotometer. The method was validated by calibrating the response at different concentrations of the peptide (data not shown) and also the ability of the method to assess different concentrations of the penetrant in the presence of any matrices was investigated.
as §1, with “This is a well established physical method of enhancing skin permeation, in vitro, which involves the use of electric current to permeabilise skin and/or promote the migration of drug ions across skin (Cullander, 1992; Guy et al., 2001; Kalia et al., 2004). Anodal” for “Anodal”

Data set [3] in a line: In vitro skin permeation, Franz cell infinite dose study (optimisation studies with MP, BP, CF). To be noted: CF; for EF enhancement factor: flux vs untreated skin.
The mark [4] stands for this setting: brush B 10 s, 300 Nm^−2, 80 rpm.
Setting [5] is: brush B 30 s, 300 Nm^−2, 80 rpm.
Where [6] appears, read: brush B 60 s, 300 Nm^−2, 80 rpm.
The mark [7] stands for this setting: Table 4a, brush A 450 Nm^−2/20 s, 80 rpm.
Setting [8] is: Table 4a, brush A 450 Nm^−2/45 s, 80 rpm.
Setting [9] is: Table 4a, brush A 1200 Nm^−2/45 s, 80 rpm.
Where [10] appears, read: Table 5a, EtOH/PBS (50% ethanol donor solution).
[11] abbreviates: Table 5a, brush A 450 Nm^−2, 45 s, 80 rpm.
[12] abbreviates: Table 5a, brush B 300 Nm^−2, 15 s, 80 rpm.
Setting [13] is: Table 5a, brush B 300 Nm^−2, 25 s, 80 rpm.

Marks after values point to notes of the source that are not given here.

With `Nc1nc2c(ncn2COCCO)c(=O)[nH]1` [acyclovir, Acyclovir], the “Amount in receptor after 60 min” value is 5.06 ± 1.88 µg/cm^2 in data set [1] (setting [4]); 12.5 ± 4.02 µg/cm^2 in data set [1] (setting [5]); 30.91 ± 5.45 µg/cm^2 in data set [1] (setting [6]); 4.95 ± 2.35 µg/cm^2 in data set [1] (cathodal iontophoresis 10 min, 0.40 mA); 0.14 ± 0.08 µg/cm^2 in data set [1] (untreated skin). Moreover, the EF in data set [1] (setting [4]) came to 36; in data set [1] (setting [5]), 89; in data set [1] (setting [6]), 220; in data set [1] (cathodal iontophoresis 10 min) it was 35. For the same compound, the “Increase in enhancement factor compared to iontophoresis” value in data set [1] (brush B at maximum treatment time (60 s)) is on record as “ca. 600%”.
As for `CC[C@H](C)[C@H](NC(=O)[C@H](Cc1ccc(O)cc1)NC(=O)[C@@H](NC(=O)[C@H](CCCNC(=N)N)NC(=O)[C@@H](N)CC(=O)O)C(C)C)C(=O)N[C@@H](Cc1cnc[nH]1)C(=O)N1CCC[C@H]1C(=O)N[C@@H](Cc1ccccc1)C(=O)O` [Ang II, Angiotensin II], the EF in data set [2] (4 h, delipidisation vs untreated skin) came to 58; in data set [2] (4 h, post-iontophoresis vs untreated skin) it was 1.7; in data set [2] (4 h, rotating brush (brush B) vs untreated skin) it was 72; in data set [2] (4 h, tape-stripping vs untreated skin) it was 53; in data set [2] (24 h, delipidisation vs untreated skin), 49; in data set [2] (24 h, post-iontophoresis vs untreated skin), 6. Moreover, the EF amounted to 63 in data set [2] (24 h, rotating brush (brush B) vs untreated skin) and 27 in data set [2] (24 h, tape-stripping vs untreated skin). In addition, the “Amount in receptor after 4 h” value in data set [2] (delipidisation) was 15.71 ± 2.85 ng/cm^2; in data set [2] (post-iontophoresis, value on sample re-analysis) it was 0.46 ± 0.15^+ ng/cm^2; in data set [2] (rotating brush (brush B)), 19.45 ± 0.55 ng/cm^2; in data set [2] (tape-stripping), 14.44 ± 4.73 ng/cm^2; in data set [2] (untreated skin, 1 mg/ml in PBS) it was 0.27 ± 0.23 ng/cm^2. The “Amount in receptor after 24 h” value turned out to be 83.03 ± 24.28 ng/cm^2 in data set [2] (delipidisation); 10.02 ± 6.28 ng/cm^2 in data set [2] (post-iontophoresis); 107.49 ± 19.66 ng/cm^2 in data set [2] (rotating brush (brush B)); 46.93 ± 15.62 ng/cm^2 in data set [2] (tape-stripping); 1.69 ± 1.01 ng/cm^2 in data set [2] (untreated skin, 1 mg/ml in PBS).
With `Cn1c(=O)c2c(ncn2C)n(C)c1=O` [CF, Caffeine], the “Amount of CF in receptor after 30 min compared with other methods of enhancement” value in data set [1] (pseudo-finite dose, brush B 300 Nm^−2/25 s) was “at least double”. Further, the “Amount of CF deposited in receptor compartment compared with untreated skin” value in data set [1] (pseudo-finite dose, chemical enhancement method (50% ethanol)) is reported as “not to be significantly different”. Further, the “Time after which presence of CF in receptor was determined” value in data set [1] (pseudo-finite dose, untreated skin and chemical enhancement, limit of detection 0.05 ug/ml) is given as 120 min. In addition, the “Reduction of lag times relative to original value” in data set [3] (brush A, altering pressure or duration of treatment) is roughly 75%. Moreover, the KP permeability coefficient in data set [3] (setting [7]) is 5.04 ± 1.30 10^−8 cm/s; in data set [3] (setting [8]), 7.95 ± 0.42 10^−8 cm/s; in data set [3] (setting [9]), 8.97 ± 4.06 10^−8 cm/s; in data set [3] (Table 4a, delipidised skin), 25.66 ± 12.28 10^−8 cm/s; in data set [3] (Table 4a, untreated skin) it was 3.39 ± 0.75 10^−8 cm/s; in data set [3] (setting [10]), 141.4 ± 31.21 10^−8 cm/s. The KP permeability coefficient in data set [3] (setting [11]) is given as 41.61 ± 14.19 10^−8 cm/s; in data set [3] (setting [12]) it was 342.4 ± 170.1 10^−8 cm/s; in data set [3] (setting [13]) it was 589.93 ± 207.62 10^−8 cm/s; in data set [3] (Table 5a, delipidised skin) it was 99.68 ± 26.84 10^−8 cm/s. Moreover, the TL lag time is given as 68.33 ± 17.76 min in data set [3] (setting [7]); 41.21 ± 8.09 min in data set [3] (setting [8]); 16.74 ± 6.50 min in data set [3] (setting [9]); 4.19 ± 1.39 min in data set [3] (Table 4a, delipidised skin); 77.66 ± 12.96 min in data set [3] (Table 4a, untreated skin); 26.71 ± 9.26 min in data set [3] (setting [10]). In addition, the TL lag time in data set [3] (setting [11]) turned out to be 16.74 ± 3.99 min; in data set [3] (Table 5a, untreated skin) it was 19.69 ± 3.54 min. Moreover, the EF enhancement factor came to 1.47 in data set [3] (setting [7]); 2.34 in data set [3] (setting [8]); 2.64 in data set [3] (setting [9]); 7.47 in data set [3] (Table 4a, delipidised skin); 15.46 in data set [3] (Table 5a, EtOH/PBS); 4.55 in data set [3] (setting [11]). Besides, the EF enhancement factor turned out to be 37.41 in data set [3] (setting [12]); 64.44 in data set [3] (setting [13]); 10.93 in data set [3] (Table 5a, delipidised skin). Besides, the JS flux in data set [3] (Table 4a, brush A 450 Nm^−2/20 s, 80 rpm, n = 2) is 10.3 ± 2.67^p 10^−4 μg/cm/s; in data set [3] (setting [8]), 16.3 ± 0.86* 10^−4 μg/cm/s; in data set [3] (setting [9]) it was 18.4 ± 8.93* 10^−4 μg/cm/s; in data set [3] (Table 4a, delipidised skin) it was 52.25 ± 25.17* 10^−4 μg/cm/s; in data set [3] (setting [11]), 8.52 ± 0.29* 10^−4 μg/cm/s.

(Values after patent US20060130266A1, “Dermal drug delivery system” (priority 2004, published 2006).)
